Source: US6316182A, “Detection of reverse transcriptase by DNA hybridization assay” (priority 1992, dated 2001)
Several values for one entry are separate records, joined by “and”; a condition that tells them apart may be missing. Equal values may be shown once. Read-outs that look alike come from different tables or passages of the source.

Key:
[1] = system: HIV-1 reverse transcriptase with codon 215 and/or codon 219 substitution; details: phenylalanine or tyrosine for threonine at codon 215, and/or glutamine for lysine at codon 219; cited from earlier work
AMV RT = test: Heteropolymeric RNA template RT hybridization assay, inhibition of AMV RT (Example 3); type: biochemical, avian myeloblastosis virus; details: for Absorbance (450 nm-650 nm): no-drug absorbance 3.760
Protocol: (§1) 1. 10 μL of 1 N KOH was added to each tube and incubated at 37° C. for 15 minutes to hydrolyze the RNA.
(§2) 2. 10 μL of 1 N KH2 PO4 was added to each tube to neutralize the pH and […] of solution from each tube was transferred to a well of a streptavidin-coated microplate.
(§3) 3. 50 μL of the following solution was added to each well:
(§4) 4. The wells were covered with an adhesive plate cover and incubated at 37° C. for 2 hours.
(§5) 6. 100 μL of tetramethylbenzidine (TMB, SOMA) was added to each well and incubated for 1 hour at room temperature.
(§6) 7. 100 μL of TMB Stop Solution (SOMA) was added to each well and the absorbance (450 nm-650 nm) of the wells was read with a plate reader.
Same as described in Example 1 above.
AMV RT (Du Pont) was used as a model to illustrate use of the method of the present invention for detecting and/or quantitating the ability of a compound to inhibit RT activity. AMV RT was added to give tubes containing 40 μL of the following solution:
These reaction conditions were similar to those of Example 1 above except with respect to the addition of the inhibitor, the lower dNTP concentration (0.001 mM instead of 0.5 mM) and the increased amount of RT (200 mU instead of 5 mU). Reducing the dNTPs decreases the signal in the assay, but increasing the RT increases the signal. The reduced dNTP concentration helps to make the assay more sensitive to inhibitors which act competitively with the dNTPs and, thus, less inhibitor is needed to achieve the effect. By adding more inhibitor, the same results can be obtained at higher dNTP concentrations.
The tubes were incubated at 37° C. for 1 hour to allow the synthesis of cDNA.
Same as for Example 1 described above.

[2] = biological target: T1, codon 74 (ddI-resistant) mutant RT (Human immunodeficiency virus type 1 group M subtype B, UniProt P04585, L661V); test: Heteropolymeric RNA template RT hybridization assay, inhibition of codon 74 mutant RT (Example 2); type: biochemical, HIV-1
T1 construct: Wild-type and mutant RT genes of these clones were subcloned into a bacterial expression vector (pKRT2); made in house; host or cells: E. coli
Protocol: (§7) A template RNA was synthesized by in vitro transcription from linearized pSP72 plasmid DNA by performing the following steps:
(§8) 2. In vitro transcription with T7 RNA polymerase was performed by 2 hour incubation at 37° C. of a solution containing 50 μg/mL of the linearized DNA, 400 units/mL T7 RNA polymerase, 40 mM Tris-HCl buffer, pH 8.0, 6 mM MgCl2, 2 mM spermidine, 10 mM NaCl, 10 mM DTT, 0.5 mM rATP, 0.5 mM rGTP, 0.5 mM rCTP and 0.5 mM rUTP.
(§9) The following DNA oligonucleotide was synthesized on a DNA synthesizer employing standard methods:
(§10) The following probe oligonucleotides were synthesized on a DNA synthesizer and conjugated with biotin or horseradish peroxidase (HRP) employing standard methods.
as §1, §2, §3, §4, §5, §6
(§11) In this example, RT was obtained from E. coli expression systems as described below and was added to each tube in sufficient amount to give a significant signal (about 1-2 absorbance units) in the absence of drug. The same amount of RT was added to each tube. Both a wild-type and a codon 74 (ddI-resistant) mutant RT were tested. Molecular clones were constructed by site-directed mutagenesis to contain a mutation at codon 74, 215, and/or 219. Mutants at codon 74 are resistant to ddI. Wild-type and mutant RT genes of these clones were subcloned into a bacterial expression vector (pKRT2). Bacterial lysates containing recombinant expressed RT, both wild-type and mutant, were made as previously described (D'Aquila, R. T. and Summers, W. C. (1989) JAIDS 2:579-587). The IC50 was determined by computerized estimation (Systat version 5.1) of the median-effect equation: fractional reduction=1/[1+(IC50/drug concentration)^m ]. Each IC50 is the mean of 5-10 experiments. Results of a one-tailed Mann-Whitney U test for the difference between mean wild-type and mutant IC50s: p<0.005.
(§12) An amount of ddATP (the active form of ddI) varying from 0.0005 to 0.250 mM was added to various tubes containing 40 μL of the following solution:
(§13) In this example, the dNTP concentrations were the same as described in Example 1 above.
(§14) These tubes were incubated at 37° C. for 1 hour to allow the synthesis of cDNA. […]

wild-type RT = biological target: T2, wild-type RT (Human immunodeficiency virus type 1 group M subtype B, UniProt P04585); test: Heteropolymeric RNA template RT hybridization assay, inhibition of wild-type RT (Example 2); type: biochemical, HIV-1
T2 construct: Wild-type and mutant RT genes of these clones were subcloned into a bacterial expression vector (pKRT2); made in house; host or cells: E. coli
Protocol: as §7, §8, §9, §10, §1, §2, §3, §4, §5, §6, §11, §12, §13, §14

[3] = system: triple mutant RT (74/215/219); test: Heteropolymeric RNA template RT hybridization assay, inhibition of triple mutant RT 74/215/219 (Example 2); type: biochemical, HIV-1; details: 74/215/219 mutant RT; single determinations; read-out: IC50 (multiple determinations)
Protocol: as §11, §12, §13, §14

[4] = system: HIV-1 reverse transcriptase with valine for leucine at codon 74; details: valine for the wild-type leucine at codon 74; cited from earlier work

For `Cc1cn([C@H]2C[C@H](N=[N+]=[N-])[C@@H](CO)O2)c(=O)[nH]c1=O` [AZT, zidovudine], which “resistance of the RT to the drug” value [1] is on record?
Its value is “leads to resistance to AZT”.

What does the source list for `Nc1ncnc2c1ncn2[C@H]1CC[C@@H](COP(=O)(O)OP(=O)(O)OP(=O)(O)O)O1` [ddATP]?
Absorbance (450 nm-650 nm) (AMV RT; ddATP 0.0001 mM): 3.593; Absorbance (450 nm-650 nm) (AMV RT; ddATP 0.00025 mM): 2.984; Absorbance (450 nm-650 nm) (AMV RT; ddATP 0.0005 mM): 2.079; Absorbance (450 nm-650 nm) (AMV RT; ddATP 0.0010 mM): 1.365; Absorbance (450 nm-650 nm) (AMV RT; ddATP 0.0025 mM): 0.350; Absorbance (450 nm-650 nm) (AMV RT; ddATP 0.0050 mM): 0.197; Absorbance (450 nm-650 nm) (AMV RT; ddATP 0.0100 mM): 0.224; IC50 ([2]; 74 mutant RT, single determinations, read-out: IC50 (multiple determinations)): 13.2 µM and 16.6 µM and 13.4 µM; IC50 ([2]; Mutant 74 RT, 5 cases, 0.5 mM dNTPs, read-out: Maximum (IC50)): 29.4 µM; IC50 ([2]; Mutant 74 RT, 5 cases, 0.5 mM dNTPs, read-out: Minimum (IC50)): 11.1 µM; IC50 ([2]; Mutant 74 RT, mean of 5 cases, 0.5 mM dNTPs, wild-type vs mutant p<0.005, read-out: Mean (IC50)): 16.9 µM; IC50 (wild-type RT; 10 cases, 0.5 mM dNTPs, read-out: Maximum (IC50)): 8.7 µM; IC50 (wild-type RT; 10 cases, 0.5 mM dNTPs, read-out: Minimum (IC50)): 3.1 µM; IC50 (wild-type RT; mean of 10 cases, 0.5 mM dNTPs, wild-type vs mutant p<0.005, read-out: Mean (IC50)): 6.79 µM; IC50 (wild-type RT; single determinations, read-out: IC50 (multiple determinations)): 8.6 µM and 6.7 µM and 7.8 µM and 4.9 µM and 5.7 µM; IC50 [3]: 79.3 µM

For `O=c1[nH]cnc2c1ncn2[C@H]1CC[C@@H](CO)O1` [ddI], which “resistance of the RT to the drug” value [4] is on record?
Its value is “leads to ddI resistance”.

For `O=C(O)P(=O)(O)O` [fosgarnet], which “inhibition detected and/or quantitated” value (AMV RT; similar experiment, non-nucleoside RT inhibitor) is on record?
Its value is “could also be detected and/or quantitated”.
